Here are results for 14 compounds from ChEMBL document CHEMBL1201862, “PubChem BioAssay data set” (2004).

Among the test systems are KM12; RXF 393; IGROV-1; RPMI-8226; SNB-75; SK-MEL-28; SK-MEL-5; TK-10; HCT-116; OVCAR-4; OVCAR-5; A549; UACC-62; 786-0; COLO 205.
Common to all, as to assay: NCI-60 cell line screen, 48 h

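Values below derive from 48-hour exposures of cells grown in 96-well plates, with endpoints linearly interpolated between the two concentrations bracketing the appropriate inhibition level. GI50 marks 50% less growth.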 Calls of active or inactive are those of the source. No stated cut-off is given here; in the data, active = GI50 up to about 1.1 µM and inactive = higher. Where only a bound is given, the exact number is not on record here.

As to `OCCN(CCO)c1ncnc2c1sc(=S)n2-c1ccccc1`, the GI50 in the assay on KM12, in the assay with RXF 393, in the assay with IGROV-1, with RPMI-8226, in the assay on SNB-75 and in the assay on SK-MEL-28 was > 100 µM (inactive) each time. Besides, the GI50 with SK-MEL-5, in the assay on TK-10, in the assay with HCT-116, in the assay with OVCAR-4, with OVCAR-5 and with A549 was > 100 µM (inactive) in each case. Further, the GI50 with UACC-62, with 786-0 and with COLO 205 was > 100 µM (inactive) each time.

On to `NCCNc1cccc2ccccc12`, for which the GI50 in the assay on KM12, with RXF 393, in the assay on IGROV-1, in the assay on RPMI-8226, in the assay with TK-10 and in the assay on HCT-116 was > 100 µM (inactive) in each case. Also, the GI50 with OVCAR-4, with OVCAR-5, in the assay on A549, with UACC-62, in the assay on 786-0 and in the assay with COLO 205 was > 100 µM (inactive) each time.

As to `C/C(CC(=O)Nc1ccc(C)c(C)c1)=N\NC(N)=O`, the GI50 in the assay on KM12, in the assay with RXF 393, in the assay with IGROV-1, in the assay on RPMI-8226, in the assay with SNB-75 and with SK-MEL-28 was > 100 µM (inactive) throughout. Moreover, the GI50 in the assay on SK-MEL-5, in the assay with TK-10, in the assay on HCT-116, in the assay on OVCAR-5, with A549 and in the assay with UACC-62 was > 100 µM (inactive) throughout. For the same compound, the GI50 in the assay on 786-0 and in the assay with COLO 205 was > 100 µM (inactive) in each case.

Regarding `CCOC(=O)C1=C(C)N(NC(=O)Nc2ccccc2)C2(N)N(NC(=O)Nc3ccccc3)C(C)=C(C(=O)OCC)C12C#N` (stereo not given), the GI50 in the assay with RXF 393 was 13.6 µM (inactive); in the assay on IGROV-1 it was 19.7 µM (inactive); in the assay on RPMI-8226, 22 µM (inactive); with SNB-75, 18.9 µM (inactive); in the assay on SK-MEL-28, 16.9 µM (inactive); in the assay with TK-10, 25.2 µM (inactive). Further, the GI50 is 17.5 µM (inactive) with HCT-116; 17.4 µM (inactive) in the assay on OVCAR-4; 17.8 µM (inactive) in the assay with OVCAR-5; 26.5 µM (inactive) in the assay on A549; 17.5 µM (inactive) with UACC-62; 18 µM (inactive) with 786-0. In the assay with COLO 205, the GI50 is 17.7 µM (inactive).

With `CCOC(=O)C12CCSC1C1(C#N)C(C#N)=CC2(N=P(c2ccccc2)(c2ccccc2)c2ccccc2)n2c(=O)n(-c3ccccc3)c(=O)n21` (stereo not given), the GI50 in the assay with KM12 was 32.6 µM (inactive); with RXF 393, > 100 µM (inactive); in the assay with IGROV-1, 59.8 µM (inactive); with RPMI-8226, 26.1 µM (inactive); in the assay with SNB-75, 47 µM (inactive); with SK-MEL-28, 27.5 µM (inactive). The GI50 was 25.2 µM (inactive) in the assay on SK-MEL-5; > 100 µM (inactive) in the assay with TK-10; 36.9 µM (inactive) with HCT-116; 21.9 µM (inactive) with OVCAR-4; > 100 µM (inactive) with OVCAR-5; 34.9 µM (inactive) in the assay on A549. Moreover, the GI50 in the assay on UACC-62 is 27.5 µM (inactive); in the assay on 786-0 it was 47.8 µM (inactive); in the assay on COLO 205, 37.8 µM (inactive).

For `Cn1c2cc([N+](=O)[O-])ccc2c(=O)c2c(O)cc3c(c21)C=CC(C)(C)O3`, the GI50 was > 100 µM (inactive) in the assay on KM12; 25.9 µM (inactive) in the assay with RXF 393; 31.1 µM (inactive) in the assay with IGROV-1; > 100 µM (inactive) in the assay with RPMI-8226; 10.1 µM (inactive) in the assay with SNB-75; > 100 µM (inactive) in the assay with SK-MEL-28. Also, the GI50 was > 100 µM (inactive) in the assay with SK-MEL-5; 37.1 µM (inactive) in the assay on TK-10; > 100 µM (inactive) with OVCAR-4; 32 µM (inactive) in the assay on OVCAR-5; 57.4 µM (inactive) in the assay with A549; 25.1 µM (inactive) in the assay with UACC-62. Moreover, the GI50 in the assay with 786-0 is 44.3 µM (inactive); in the assay with COLO 205, > 100 µM (inactive).

`CNS(=O)(=O)NNS(=O)(=O)c1cccc([N+](=O)[O-])c1`: the GI50 in the assay on KM12, with RXF 393, in the assay with IGROV-1, with RPMI-8226, in the assay on SNB-75 and with SK-MEL-5 was > 100 µM (inactive) throughout. The GI50 in the assay on TK-10, in the assay with HCT-116, with OVCAR-4, in the assay on A549, in the assay on UACC-62 and in the assay on 786-0 was > 100 µM (inactive) each time. For the same compound, the GI50 with COLO 205 was > 100 µM (inactive).

Regarding `COc1ccc(/C=N/NC(=O)NCCNCCO)cc1`, the GI50 in the assay on KM12, with RXF 393, in the assay with IGROV-1, in the assay with RPMI-8226, with SNB-75 and in the assay on SK-MEL-28 was > 100 µM (inactive) in each case. Moreover, the GI50 in the assay on SK-MEL-5, in the assay with TK-10, with HCT-116, in the assay with OVCAR-4, in the assay on OVCAR-5 and with A549 was > 100 µM (inactive) in each case. Also, the GI50 in the assay on UACC-62, in the assay with 786-0 and with COLO 205 was > 100 µM (inactive) throughout.

For the compound `CC1=NN(C(=O)c2ccncc2)C(=O)C1/N=N/c1ccc(F)cc1` (stereo not given), the GI50 in the assay on RXF 393 was 58.1 µM (inactive); in the assay with IGROV-1, > 100 µM (inactive); in the assay on RPMI-8226, > 100 µM (inactive); with SNB-75, 21.5 µM (inactive); in the assay on SK-MEL-28, > 100 µM (inactive); in the assay on SK-MEL-5, > 100 µM (inactive). In addition, the GI50 is > 100 µM (inactive) with TK-10; 96.8 µM (inactive) in the assay on HCT-116; > 100 µM (inactive) in the assay on OVCAR-4; > 100 µM (inactive) in the assay on OVCAR-5; > 100 µM (inactive) in the assay with A549; > 100 µM (inactive) in the assay on UACC-62. The GI50 in the assay on 786-0 and in the assay on COLO 205 was > 100 µM (inactive) in each case.

Turning to `Cc1nc2nnc(C)n2c2c1C(=O)Nc1ccccc1N2`, the GI50 with KM12, with RXF 393, in the assay with IGROV-1, with RPMI-8226, with SNB-75 and in the assay on SK-MEL-28 was > 100 µM (inactive) each time. Moreover, the GI50 in the assay on TK-10, in the assay on HCT-116, in the assay on A549, with UACC-62, in the assay with 786-0 and in the assay with COLO 205 was > 100 µM (inactive) in each case.

In the case of `N#Cc1ccc(Nc2cnc3cc(N)ccc3n2)cc1`, the GI50 in the assay on KM12 is > 100 µM (inactive); in the assay with RXF 393, 26.5 µM (inactive); in the assay on RPMI-8226, 42.7 µM (inactive); in the assay on SNB-75, > 100 µM (inactive); with SK-MEL-28, > 100 µM (inactive); in the assay with SK-MEL-5, > 100 µM (inactive). Moreover, the GI50 was > 100 µM (inactive) in the assay with TK-10; 55 µM (inactive) in the assay with HCT-116; > 100 µM (inactive) with OVCAR-4; > 100 µM (inactive) in the assay on OVCAR-5; > 100 µM (inactive) with A549; 83.4 µM (inactive) with UACC-62. Also, the GI50 was 85.1 µM (inactive) with 786-0 and > 100 µM (inactive) with COLO 205.

For the compound `CCN(CCCl)CCCCCNc1c2ccccc2nc2ccc(OC)cc12`, the GI50 is 0.454 µM (active) in the assay on KM12; 1.07 µM (active) in the assay with RXF 393; 0.578 µM (active) with IGROV-1; 0.115 µM (active) in the assay on RPMI-8226; 0.942 µM (active) in the assay with SNB-75; 2.72 µM (inactive) in the assay on SK-MEL-28. Moreover, the GI50 with SK-MEL-5 was 1.1 µM (active); in the assay with TK-10, 7.66 µM (inactive); with HCT-116, 0.221 µM (active); in the assay with OVCAR-4, 1.01 µM (active); in the assay with OVCAR-5, 1.55 µM (inactive); in the assay on A549 it was 0.373 µM (active). In addition, the figures for the GI50 with UACC-62, in the assay on 786-0 and in the assay on COLO 205 were 0.402 µM (active), 0.345 µM (active) and 1.1 µM (active), respectively.

Regarding `N=C(NNS(=O)(=O)c1ccccc1)Oc1ccc(Br)cc1Br`, the GI50 is > 100 µM (inactive) in the assay on KM12; > 100 µM (inactive) in the assay on RXF 393; > 100 µM (inactive) in the assay with IGROV-1; 57.8 µM (inactive) in the assay on RPMI-8226; 94.2 µM (inactive) with SNB-75; > 100 µM (inactive) with SK-MEL-28. The GI50 in the assay with SK-MEL-5, in the assay with TK-10, in the assay with HCT-116, with OVCAR-4, in the assay with OVCAR-5 and in the assay with A549 was > 100 µM (inactive) throughout. The GI50 in the assay on UACC-62 is > 100 µM (inactive); in the assay with 786-0, 41.3 µM (inactive); in the assay with COLO 205 it was > 100 µM (inactive).

As to `[N-]=[N+]=NC12CC3C4CC5CC3C(C1)C(C5)C4C2`, the GI50 in the assay on KM12, with IGROV-1, in the assay on RPMI-8226, with SNB-75, in the assay on SK-MEL-28 and in the assay on SK-MEL-5 was > 100 µM (inactive) throughout. In addition, the GI50 with TK-10, with HCT-116, in the assay with OVCAR-4, in the assay with OVCAR-5, in the assay with A549 and in the assay with UACC-62 was > 100 µM (inactive) in each case. For the same compound, the GI50 in the assay with 786-0 and in the assay with COLO 205 was > 100 µM (inactive) each time.
